{"source": "patent US9212152B2", "about": "“Process for the preparation of N-hydroxy-1-(1-alkyl-1H-tetrazol-5-yl)-1-phenylmethanimine derivatives” (BAYER INTELLECTUAL PROPERTY GMBH, priority 2012, dated 2015)", "experiment": "log P determination", "type": "physicochemical", "details": "pH 2.7", "data": [{"smiles": "Cn1nnnc1C(=NO)c1ccccc1", "note": "[Example 1, sodium {[(1-methyl-1H-tetrazol-5-yl)(phenyl)methylene]amino}oxidanide]", "values": [{"measurement": "logP", "result": 1.45}]}]}
